# Data taken from US5945404A, “21-Substituted steroid compound” (priority 1993, dated 1999).
# System: granuloma
# Test: Inhibitory Effects on Granuloma Growth (Paper Disk Method)
# Format: in vivo, male Sprague-Dawley rats
# Conditions: Rattus norvegicus, topical, 168 h, rat, paper disk; ointment 0.1%, 50 mg once a day, 7 days; read-out: Weight of granuloma, per cent of change of the controls
# Experimental: Ointment to be tested was prepared usign white soft paraffin as the base and containing dexamethasone at 0.1% concentration.
# Groups of 5 male Sprague-Dawley rats each weighing 150-170 g were used. Under ether anesthesia, the dorsum of animals was closely clipped, and medianly incised. After each one pre-weighed paper disk (8-mm diameter, 1-mm thick, weighing about 30 mg; Toyo-Roshi filter paper) was inserted subcutaneously into both sides of the dorsal incision, the incision was sutured. In order to prevent bacterial infection, penicillin G potassium salt (2,000 units) per rat was intramascularly injected after the surgery. Base or ointment to be tested (50 mg each) was rubbed carefully into the skin over the paper disk inserted site, for 30 seconds once a day for the duration of 7 days. Rats were slipped plastic cangs on to prevent them from licking the drug applied sites. On the 8th day of the test, rats were sacrificed under ether anesthesia, and granulomas were carefully excised. Granulomas were dried at 40° C. for 24 h, and their dry weights were recorded.
# Inhibitory effects of dexamethasone derivatives on the weight increase of granuloma of experimental animals as compared with those of control animals are shown as per cent of inhibition ov er the control in Table 1. Figures wihth asterisks in the table indicate signfiicant difference. The same will be applied to the following other tables.
row,Structure (SMILES),"change in vivo at 0.1 %, 50 mg [%]"
1,COC(=O)[C@H]1O[C@@H](OCC(=O)[C@@]2(O)[C@H](C)C[C@H]3[C@@H]4CCC5=CC(=O)C=C[C@]5(C)[C@@]4(F)[C@@H](O)C[C@@]32C)[C@H](OC(C)=O)[C@@H](OC(C)=O)[C@@H]1OC(C)=O [Compound 54β],-35.1 ± 2.8
2,COC(=O)[C@H]1O[C@@H](OCC(=O)[C@@]2(O)[C@H](C)C[C@H]3[C@@H]4CCC5=CC(=O)C=C[C@]5(C)[C@@]4(F)[C@@H](O)C[C@@]32C)[C@H](OC(=O)c2ccc(C)cc2)[C@@H](OC(=O)c2ccc(C)cc2)[C@H]1OC(=O)c1ccc(C)cc1 [Compound 69β],0.7 ± 2.4
3,COC(=O)[C@H]1O[C@@H]2OC(C)(OCC(=O)[C@@]3(O)[C@H](C)C[C@H]4[C@@H]5CCC6=CC(=O)C=C[C@]6(C)[C@@]5(F)[C@@H](O)C[C@@]43C)O[C@@H]2[C@@H](OC(C)=O)[C@@H]1OC(C)=O (stereo partly shown) [Compound 54'],-44.8 ± 2.4
4,"CC(=O)N[C@H]1[C@H](OCC(=O)[C@@]2(O)[C@H](C)C[C@H]3[C@@H]4CCC5=CC(=O)C=C[C@]5(C)[C@@]4(F)[C@@H](O)C[C@@]32C)O[C@H](COC(C)=O)[C@@H](OC(C)=O)[C@@H]1OC(C)=O [Compound 34β, N-acetylglucosaminyldexamethasone]",-21.3 ± 3.9
5,"Cc1ccc(C(=O)OC[C@H]2O[C@H](OCC(=O)[C@@]3(O)[C@H](C)C[C@H]4[C@@H]5CCC6=CC(=O)C=C[C@]6(C)[C@@]5(F)[C@@H](O)C[C@@]43C)[C@@H](OC(=O)c3ccc(C)cc3)[C@@H](OC(=O)c3ccc(C)cc3)[C@@H]2OC(=O)c2ccc(C)cc2)cc1 [Compound 24α, mannosyldexamethasone]",-3.7 ± 4.5
6,Cc1ccc(C(=O)OC[C@H]2O[C@H](OCC(=O)[C@@]3(O)[C@H](C)C[C@H]4[C@@H]5CCC6=CC(=O)C=C[C@]6(C)[C@@]5(F)[C@@H](O)C[C@@]43C)[C@H](OC(=O)c3ccc(C)cc3)[C@@H](OC(=O)c3ccc(C)cc3)[C@H]2OC(=O)c2ccc(C)cc2)cc1 [Compound 14α],5.7 ± 1.9
7,Cc1ccc(C(=O)OC[C@H]2O[C@@H](OCC(=O)[C@@]3(O)[C@H](C)C[C@H]4[C@@H]5CCC6=CC(=O)C=C[C@]6(C)[C@@]5(F)[C@@H](O)C[C@@]43C)[C@H](OC(=O)c3ccc(C)cc3)[C@@H](OC(=O)c3ccc(C)cc3)[C@@H]2OC(=O)c2ccc(C)cc2)cc1 [Compound 4β],-7.9 ± 5
8,COC(=O)[C@H]1O[C@@H](OCC(=O)[C@@]2(O)[C@H](C)C[C@H]3[C@@H]4CCC5=CC(=O)C=C[C@]5(C)[C@@]4(F)[C@@H](O)C[C@@]32C)[C@H](OC(=O)c2ccc(C)cc2)[C@@H](OC(=O)c2ccc(C)cc2)[C@@H]1OC(=O)c1ccc(C)cc1 [Compound 59β],-7.7 ± 6.8
9,Cc1ccc(C(=O)OC[C@H]2O[C@H](OCC(=O)[C@@]3(O)[C@H](C)C[C@H]4[C@@H]5CCC6=CC(=O)C=C[C@]6(C)[C@@]5(F)[C@@H](O)C[C@@]43C)[C@H](OC(=O)c3ccc(C)cc3)[C@@H](OC(=O)c3ccc(C)cc3)[C@@H]2OC(=O)c2ccc(C)cc2)cc1 [Compound 4α],-0.6 ± 5.1
10,Cc1ccc(C(=O)OC[C@H]2O[C@@H](OCC(=O)[C@@]3(O)[C@H](C)C[C@H]4[C@@H]5CCC6=CC(=O)C=C[C@]6(C)[C@@]5(F)[C@@H](O)C[C@@]43C)[C@H](OC(=O)c3ccc(C)cc3)[C@@H](OC(=O)c3ccc(C)cc3)[C@H]2OC(=O)c2ccc(C)cc2)cc1 [Compound 14β],-8.7 ± 7.2
